ChEMBL document CHEMBL5678807, “A selective jumonji H3K27 demethylase inhibitor modulates the proinflammatory macrophage response” (Nature, 2012)

Legend:
Macrophage [1] = assay: Antiinflammatory activity in human primary macrophages assessed as effect on LPS-induced GDF11 gene expression at 30 uM measured after 2 hrs by RT-PCR array (reference value: 115 a.u.); format: functional
Macrophage [2] = assay: Antiinflammatory activity in human primary macrophages assessed as effect on LPS-induced IL24 gene expression at 30 uM measured after 2 hrs by RT-PCR array (reference value: 12164 a.u.); format: functional
Macrophage [3] = assay: Antiinflammatory activity in human primary macrophages assessed as effect on LPS-induced IL1F10 gene expression at 30 uM measured after 2 hrs by RT-PCR array (reference value: 125 a.u.); format: functional
Macrophage [4] = assay: Antiinflammatory activity in human primary macrophages assessed as effect on LPS-induced IFNG gene expression at 30 uM measured after 2 hrs by RT-PCR array (reference value: 240 a.u.); format: functional
Macrophage [5] = assay: Antiinflammatory activity in human primary macrophages assessed as effect on LPS-induced IL8 gene expression at 30 uM measured after 2 hrs by RT-PCR array (reference value: 11155386 a.u.); format: functional
Macrophage [6] = assay: Antiinflammatory activity in human primary macrophages assessed as effect on LPS-induced TNFRSF11B gene expression at 30 uM measured after 2 hrs by RT-PCR array (reference value: 1609 a.u.); format: functional
Macrophage [7] = assay: Antiinflammatory activity in human primary macrophages assessed as effect on LPS-induced GAPDH gene expression at 30 uM measured after 2 hrs by RT-PCR array (reference value: 1352294 a.u.); format: functional
Macrophage [8] = assay: Antiinflammatory activity in human primary macrophages assessed as effect on LPS-induced IL11 gene expression at 30 uM measured after 2 hrs by RT-PCR array (reference value: 6 a.u.); format: functional
Macrophage [9] = assay: Antiinflammatory activity in human primary macrophages assessed as effect on LPS-induced CSF2 gene expression at 30 uM measured after 2 hrs by RT-PCR array (reference value: 248134 a.u.); format: functional
Macrophage [10] = assay: Antiinflammatory activity in human primary macrophages assessed as effect on LPS-induced IFNA8 gene expression at 30 uM measured after 2 hrs by RT-PCR array (reference value: 425 a.u.); format: functional
Macrophage [11] = assay: Antiinflammatory activity in human primary macrophages assessed as effect on LPS-induced PDGFA gene expression at 30 uM measured after 2 hrs by RT-PCR array (reference value: 235 a.u.); format: functional
Macrophage [12] = assay: Antiinflammatory activity in human primary macrophages assessed as effect on LPS-induced IL1A gene expression at 30 uM measured after 2 hrs by RT-PCR array (reference value: 1292761 a.u.); format: functional
Macrophage [13] = assay: Antiinflammatory activity in human primary macrophages assessed as effect on LPS-induced IL7 gene expression at 30 uM measured after 2 hrs by RT-PCR array (reference value: 60083 a.u.); format: functional
Substance-P receptor = Substance-P receptor (Homo sapiens, UniProt P25103); assay: Antagonist activity at human NK-1 by intracellular Ca luminescence assay; format: functional, cell-based
Vasopressin V1a receptor = Vasopressin V1a receptor (Homo sapiens, UniProt P37288); assay: Antagonist activity at human vasopressin V1a by intracellular Ca luminescence assay; format: functional, cell-based
[14] = molecular target: Alpha-1B adrenergic receptor (Homo sapiens, UniProt P35368); assay: Antagonist activity at human adrenergic alpha 1B by intracellular Ca luminescence assay; format: functional, cell-based
[15] = molecular target: Polyamine deacetylase HDAC10 (Homo sapiens, UniProt Q969S8); assay: Inhibition of human HDAC10 by FLINT assay
[16] = molecular target: Lysine-specific histone demethylase 1A (Homo sapiens, UniProt O60341); assay: Inhibition of human LSD-1 by luminescence assay
[17] = molecular target: Acetylcholine receptor subunit alpha (Homo sapiens, UniProt P02708); assay: Agonist activity at human alpha 1 nAChR by intracellular Ca fluorescence assay; format: cell-based
Mu-type opioid receptor [18] = molecular target: T1, Mu-type opioid receptor (Homo sapiens, UniProt P35372); assay: Agonist activity at human OPRM-1 by SPA; format: functional
Histone deacetylase 7 = Histone deacetylase 7 (Homo sapiens, UniProt Q8WUI4); assay: Inhibition of human HDAC7 by FLINT assay
[19] = molecular target: 3',5'-cyclic-AMP phosphodiesterase 4B (Homo sapiens, UniProt Q07343); assay: Inhibition of human PDE4B by luminescence assay
[20] = molecular target: Amine oxidase [flavin-containing] A (Homo sapiens, UniProt P21397); assay: Inhibition of human MAOA by FLINT assay
hERG (KCNH2) = hERG (KCNH2) (Homo sapiens, UniProt Q12809); assay: Binding affinity to human ERG by FP binding assay; format: toxicity
Histone deacetylase 11 = Histone deacetylase 11 (Homo sapiens, UniProt Q96DB2); assay: Inhibition of human HDAC11 by FLINT assay
[21] = molecular target: Kappa-type opioid receptor (Homo sapiens, UniProt P41145); assay: Agonist activity at human OPRK-1 by SPA; format: functional
[22] = Antagonist activity at human NR1A/NR2B by intracellular Ca fluorescence assay; format: cell-based
[23] = molecular target: T2, 5-hydroxytryptamine receptor 2C (Homo sapiens, UniProt P28335); assay: Antagonist activity at human 5-HT2C by intracellular Ca luminescence assay; format: functional, cell-based
T2 sequence (P28335 whole entry): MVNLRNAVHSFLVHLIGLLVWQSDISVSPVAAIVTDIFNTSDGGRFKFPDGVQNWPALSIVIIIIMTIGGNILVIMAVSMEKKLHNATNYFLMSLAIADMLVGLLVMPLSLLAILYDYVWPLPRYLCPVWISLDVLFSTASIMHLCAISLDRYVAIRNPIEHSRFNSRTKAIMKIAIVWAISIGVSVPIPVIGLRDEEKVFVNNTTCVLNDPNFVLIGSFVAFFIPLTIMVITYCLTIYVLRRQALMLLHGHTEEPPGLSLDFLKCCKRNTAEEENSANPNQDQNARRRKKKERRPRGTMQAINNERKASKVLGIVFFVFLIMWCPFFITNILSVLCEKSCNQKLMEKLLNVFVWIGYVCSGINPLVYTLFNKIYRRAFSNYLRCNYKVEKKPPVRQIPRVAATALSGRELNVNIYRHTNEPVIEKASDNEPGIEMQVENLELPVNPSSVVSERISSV

[24] = molecular target: Amine oxidase [flavin-containing] B (Homo sapiens, UniProt P27338); assay: Inhibition of human MAOB by FLINT assay
Histone deacetylase 4 = Histone deacetylase 4 (Homo sapiens, UniProt P56524); assay: Inhibition of human HDAC4 by FLINT assay
[25] = molecular target: Sodium channel protein type 5 subunit alpha (Homo sapiens, UniProt Q14524); assay: Blockade of human NaV1.5 by electrophysiology assay
PXR (NR1I2) = PXR (NR1I2) (Homo sapiens, UniProt O75469); assay: Agonist activity at human PXR by luciferase reporter assay
Adenosine receptor A2a = Adenosine receptor A2a (Homo sapiens, UniProt P29274); assay: Agonist activity at human adenosine A2a by TR-FRET assay; format: functional
Mu-type opioid receptor [26] = molecular target: T1, Mu-type opioid receptor; assay: Antagonist activity at human OPRM-1 by SPA; format: functional
[27] = molecular target: Voltage-gated potassium channel, IKs; KCNQ1(Kv7.1)/KCNE1(MinK) (Homo sapiens, UniProt P51787+P15382); assay: Blockade of human KCNQ1/KCNE1 by electrophysiology assay; format: protein-complex assay

T1 sequence (P35372 whole entry): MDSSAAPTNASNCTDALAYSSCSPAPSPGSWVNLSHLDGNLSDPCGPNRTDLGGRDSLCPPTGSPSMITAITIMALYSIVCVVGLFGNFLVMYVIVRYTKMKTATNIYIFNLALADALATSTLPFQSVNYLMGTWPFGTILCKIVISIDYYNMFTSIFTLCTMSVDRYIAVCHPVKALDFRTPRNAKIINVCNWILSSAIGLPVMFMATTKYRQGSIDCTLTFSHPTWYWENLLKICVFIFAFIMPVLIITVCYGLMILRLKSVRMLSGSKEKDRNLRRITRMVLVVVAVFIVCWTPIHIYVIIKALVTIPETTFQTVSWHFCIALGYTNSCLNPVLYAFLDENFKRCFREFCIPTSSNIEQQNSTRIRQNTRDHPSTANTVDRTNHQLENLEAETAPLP
Histone deacetylase 11, sequence (Q96DB2 whole entry): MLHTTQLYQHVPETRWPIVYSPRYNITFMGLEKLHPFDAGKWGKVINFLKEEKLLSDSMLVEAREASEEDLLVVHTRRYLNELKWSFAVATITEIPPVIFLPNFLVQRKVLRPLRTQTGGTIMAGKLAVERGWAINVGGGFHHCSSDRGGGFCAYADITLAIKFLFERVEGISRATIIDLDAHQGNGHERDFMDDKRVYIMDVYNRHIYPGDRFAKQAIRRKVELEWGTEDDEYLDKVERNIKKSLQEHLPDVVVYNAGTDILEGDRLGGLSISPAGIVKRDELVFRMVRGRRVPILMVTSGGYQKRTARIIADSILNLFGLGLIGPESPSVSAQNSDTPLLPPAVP
Amine oxidase [flavin-containing] A, sequence (P21397 whole entry): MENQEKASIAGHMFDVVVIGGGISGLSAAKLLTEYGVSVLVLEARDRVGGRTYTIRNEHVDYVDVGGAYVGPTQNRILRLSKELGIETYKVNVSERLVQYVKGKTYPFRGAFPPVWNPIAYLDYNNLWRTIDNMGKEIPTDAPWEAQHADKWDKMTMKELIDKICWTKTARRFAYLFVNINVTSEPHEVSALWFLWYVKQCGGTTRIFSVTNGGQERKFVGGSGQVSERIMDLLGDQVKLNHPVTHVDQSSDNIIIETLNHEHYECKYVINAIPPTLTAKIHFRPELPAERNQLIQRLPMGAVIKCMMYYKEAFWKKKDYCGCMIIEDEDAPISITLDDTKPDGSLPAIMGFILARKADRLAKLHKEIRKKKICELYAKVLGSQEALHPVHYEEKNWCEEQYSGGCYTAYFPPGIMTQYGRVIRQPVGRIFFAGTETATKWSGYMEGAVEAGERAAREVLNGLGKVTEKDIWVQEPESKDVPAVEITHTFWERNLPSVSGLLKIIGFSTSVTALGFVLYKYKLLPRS
Histone deacetylase 7, sequence (Q8WUI4 whole entry): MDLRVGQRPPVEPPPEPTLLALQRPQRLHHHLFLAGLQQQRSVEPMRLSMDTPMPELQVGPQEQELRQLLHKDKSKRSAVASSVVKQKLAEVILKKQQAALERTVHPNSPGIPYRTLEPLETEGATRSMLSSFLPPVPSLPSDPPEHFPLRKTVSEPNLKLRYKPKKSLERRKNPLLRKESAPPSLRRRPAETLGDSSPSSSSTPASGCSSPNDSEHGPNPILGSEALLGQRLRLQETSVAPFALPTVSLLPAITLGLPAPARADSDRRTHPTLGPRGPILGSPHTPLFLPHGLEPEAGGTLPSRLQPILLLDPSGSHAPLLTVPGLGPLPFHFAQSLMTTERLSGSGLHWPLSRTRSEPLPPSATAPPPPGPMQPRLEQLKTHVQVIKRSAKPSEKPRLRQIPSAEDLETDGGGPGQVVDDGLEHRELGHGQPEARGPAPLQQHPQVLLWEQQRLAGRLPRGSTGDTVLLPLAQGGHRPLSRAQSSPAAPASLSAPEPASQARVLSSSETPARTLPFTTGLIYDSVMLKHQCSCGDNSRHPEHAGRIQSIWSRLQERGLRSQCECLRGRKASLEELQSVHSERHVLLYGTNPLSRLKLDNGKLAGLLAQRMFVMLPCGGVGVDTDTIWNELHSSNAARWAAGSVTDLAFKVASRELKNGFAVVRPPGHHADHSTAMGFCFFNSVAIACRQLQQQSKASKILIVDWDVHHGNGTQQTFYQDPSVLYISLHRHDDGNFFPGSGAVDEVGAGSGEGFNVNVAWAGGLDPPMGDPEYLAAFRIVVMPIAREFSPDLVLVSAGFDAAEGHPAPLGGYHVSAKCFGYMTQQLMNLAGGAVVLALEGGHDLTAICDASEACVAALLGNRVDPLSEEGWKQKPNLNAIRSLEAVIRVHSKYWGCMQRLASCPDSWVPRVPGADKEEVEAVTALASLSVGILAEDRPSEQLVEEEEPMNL
Substance-P receptor, sequence (P25103 whole entry): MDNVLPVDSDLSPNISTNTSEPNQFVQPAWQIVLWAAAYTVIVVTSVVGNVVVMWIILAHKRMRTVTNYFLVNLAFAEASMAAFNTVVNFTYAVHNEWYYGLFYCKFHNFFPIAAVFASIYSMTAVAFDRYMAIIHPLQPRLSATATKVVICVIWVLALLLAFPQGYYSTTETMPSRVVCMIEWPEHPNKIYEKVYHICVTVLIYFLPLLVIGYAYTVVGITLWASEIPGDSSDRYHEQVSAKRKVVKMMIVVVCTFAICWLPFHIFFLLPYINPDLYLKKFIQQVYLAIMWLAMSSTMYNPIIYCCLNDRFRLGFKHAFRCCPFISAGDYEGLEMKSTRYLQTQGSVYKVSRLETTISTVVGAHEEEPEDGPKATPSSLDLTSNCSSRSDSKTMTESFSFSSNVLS
Amine oxidase [flavin-containing] B, sequence (P27338 whole entry): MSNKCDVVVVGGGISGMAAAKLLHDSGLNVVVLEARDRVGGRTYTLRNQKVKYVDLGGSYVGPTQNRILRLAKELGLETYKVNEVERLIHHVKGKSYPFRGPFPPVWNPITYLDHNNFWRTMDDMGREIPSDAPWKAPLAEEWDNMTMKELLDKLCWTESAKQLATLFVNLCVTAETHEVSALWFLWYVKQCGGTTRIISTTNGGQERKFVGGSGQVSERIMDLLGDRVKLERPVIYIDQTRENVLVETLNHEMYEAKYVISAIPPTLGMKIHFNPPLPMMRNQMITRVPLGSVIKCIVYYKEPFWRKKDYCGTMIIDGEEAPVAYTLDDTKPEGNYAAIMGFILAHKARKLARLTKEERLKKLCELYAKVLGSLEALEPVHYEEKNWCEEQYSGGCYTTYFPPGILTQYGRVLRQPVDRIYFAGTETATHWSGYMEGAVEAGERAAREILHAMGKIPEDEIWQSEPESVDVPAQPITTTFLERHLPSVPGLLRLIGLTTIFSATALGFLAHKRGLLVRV
PXR (NR1I2), sequence (O75469 whole entry): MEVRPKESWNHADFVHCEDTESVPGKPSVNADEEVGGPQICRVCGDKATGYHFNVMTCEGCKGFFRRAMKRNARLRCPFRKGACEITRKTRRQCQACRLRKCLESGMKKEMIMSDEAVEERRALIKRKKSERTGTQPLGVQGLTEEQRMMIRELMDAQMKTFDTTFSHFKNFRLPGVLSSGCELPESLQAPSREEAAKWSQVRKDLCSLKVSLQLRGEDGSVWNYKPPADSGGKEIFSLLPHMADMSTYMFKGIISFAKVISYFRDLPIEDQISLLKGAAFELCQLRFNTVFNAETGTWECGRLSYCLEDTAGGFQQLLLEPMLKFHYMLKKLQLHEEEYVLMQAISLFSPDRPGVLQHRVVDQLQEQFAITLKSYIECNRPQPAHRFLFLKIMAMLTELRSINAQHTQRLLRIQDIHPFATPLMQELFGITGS
Polyamine deacetylase HDAC10, sequence (Q969S8 whole entry): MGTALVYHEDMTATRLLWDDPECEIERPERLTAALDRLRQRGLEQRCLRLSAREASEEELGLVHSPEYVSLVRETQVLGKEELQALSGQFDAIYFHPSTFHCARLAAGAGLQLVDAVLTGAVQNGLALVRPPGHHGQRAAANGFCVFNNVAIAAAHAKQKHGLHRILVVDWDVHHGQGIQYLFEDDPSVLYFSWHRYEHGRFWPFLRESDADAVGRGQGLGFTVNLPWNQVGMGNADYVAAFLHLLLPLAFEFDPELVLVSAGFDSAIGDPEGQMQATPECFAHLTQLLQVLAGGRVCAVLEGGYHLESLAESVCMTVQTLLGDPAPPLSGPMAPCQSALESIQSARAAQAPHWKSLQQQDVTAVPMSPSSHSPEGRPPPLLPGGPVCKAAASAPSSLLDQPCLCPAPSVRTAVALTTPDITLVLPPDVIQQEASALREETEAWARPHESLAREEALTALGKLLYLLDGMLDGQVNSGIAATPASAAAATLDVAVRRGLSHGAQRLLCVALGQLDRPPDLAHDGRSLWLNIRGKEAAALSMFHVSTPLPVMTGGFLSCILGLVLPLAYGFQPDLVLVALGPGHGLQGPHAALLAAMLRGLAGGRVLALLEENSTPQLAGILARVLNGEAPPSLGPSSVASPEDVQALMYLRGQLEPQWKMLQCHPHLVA
Vasopressin V1a receptor, sequence (P37288 whole entry): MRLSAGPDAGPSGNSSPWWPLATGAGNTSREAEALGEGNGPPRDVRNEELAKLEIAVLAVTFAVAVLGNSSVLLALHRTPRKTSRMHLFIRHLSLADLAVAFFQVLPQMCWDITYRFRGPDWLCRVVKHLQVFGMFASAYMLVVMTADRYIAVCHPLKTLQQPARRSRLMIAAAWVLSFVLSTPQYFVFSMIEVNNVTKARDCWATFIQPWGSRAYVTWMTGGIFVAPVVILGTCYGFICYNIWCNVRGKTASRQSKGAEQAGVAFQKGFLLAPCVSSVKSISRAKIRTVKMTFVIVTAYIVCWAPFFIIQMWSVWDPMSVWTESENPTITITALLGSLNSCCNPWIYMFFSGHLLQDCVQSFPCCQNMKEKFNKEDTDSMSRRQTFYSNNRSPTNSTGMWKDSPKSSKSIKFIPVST

Row | SMILES | Activity (Macrophage [1]) | Activity (Macrophage [2]) | Activity (Macrophage [3]) | Activity (Macrophage [4]) | Activity (Macrophage [5]) | Activity (Macrophage [6]) | Activity (Macrophage [7]) | Activity (Macrophage [8]) | Activity (Macrophage [9]) | Activity (Macrophage [10]) | Activity (Macrophage [11]) | Activity (Macrophage [12]) | Activity (Macrophage [13]) | XC50 (Substance-P receptor) | XC50 (Vasopressin V1a receptor) | XC50 [14] | XC50 [15] | XC50 [16] | XC50 [17] | XC50 (Mu-type opioid receptor [18]) | other results
1 | CCOC(=O)CCNc1cc(N2CCc3ccccc3CC2)nc(-c2ccccn2)n1 | 31 a.u. | 11754 a.u. | 11 a.u. | 298 a.u. | 1556795 a.u. | 267 a.u. | 1352294 a.u. | 403 a.u. | 10602 a.u. | 1012 a.u. | 392 a.u. | 170309 a.u. | 4135 a.u. | – | – | – | – | – | – | – | –
2 | O=C(O)CCNc1cc(N2CCc3ccccc3CC2)nc(-c2ccccn2)n1 | – | – | – | – | – | – | – | – | – | – | – | – | – | > 40 µM | > 50 µM | > 40 µM | > 300 µM | > 125 µM | > 50 µM | > 100 µM | XC50 (Histone deacetylase 7): > 300 µM; XC50 [19]: 100 µM; XC50 [20]: 50 µM; XC50 (hERG (KCNH2)): 32 µM; XC50 (Histone deacetylase 11): > 300 µM; XC50 [21]: > 100 µM; XC50 [22]: > 50 µM; XC50 [23]: > 40 µM; XC50 [24]: 25 µM; XC50 (Histone deacetylase 4): > 300 µM; XC50 [25]: 79 µM; XC50 (PXR (NR1I2)): > 50 µM; XC50 (Adenosine receptor A2a): > 32 µM; XC50 (Mu-type opioid receptor [26]): 50 µM; XC50 [27]: > 25 µM
3 | O=C(O)CCNc1cc(N2CCc3ccccc3CC2)nc(-c2cccnc2)n1 | – | – | – | – | – | – | – | – | – | – | – | – | – | > 40 µM | 4.9 µM | > 40 µM | > 300 µM | > 125 µM | > 50 µM | > 100 µM | XC50 (Histone deacetylase 7): > 300 µM; XC50 [19]: 40 µM; XC50 [20]: > 100 µM; XC50 (hERG (KCNH2)): > 100 µM; XC50 (Histone deacetylase 11): > 300 µM; XC50 [21]: > 100 µM; XC50 [22]: > 50 µM; XC50 [23]: > 40 µM; XC50 [24]: 25 µM; XC50 (Histone deacetylase 4): > 300 µM; XC50 [25]: 50 µM; XC50 (PXR (NR1I2)): 10 µM; XC50 (Adenosine receptor A2a): > 32 µM; XC50 (Mu-type opioid receptor [26]): 63 µM; XC50 [27]: > 25 µM
4 | CCOC(=O)CCNc1cc(N2CCc3ccccc3CC2)nc(-c2cccnc2)n1 | 110 a.u. | 10100 a.u. | 102 a.u. | 60 a.u. | 5618140 a.u. | 784 a.u. | 1352294 a.u. | 32 a.u. | 67356 a.u. | 431 a.u. | 239 a.u. | 815450 a.u. | 24543 a.u. | – | – | – | – | – | – | – | –
